{"source": "PubChem BioAssay AID1259409", "about": "(Chemical Carcinogenesis Research Information System (CCRIS), 2018)", "origin": "cited, not measured here", "system": "rodent chemically induced tumor inhibition, incidence and multiplicity", "test": "CCRIS tumor inhibitor studies"}
{"compound": "COc1ccc2c(c1)c(CC(=O)O)c(C)n2C(=O)c1ccc(Cl)cc1", "values": [{"measurement": "tumour outcome (control, treated, inhibition, significance)", "setting": "Carcinogen: 1,2-DIMETHYLHYDRAZINE DIHYDROCHLORIDE, 306-37-6, Dose [Inhibitor]: 20 MG/L TAP WATER DAILY FOR 32 WK STARTING SIMULTANEOUSLY WITH CARCINOGEN TREATMENT (STUDY DURATION: 32 WK), Route [Inhibitor]: ORAL, Species: RAT, Strain/Sex: SPRAGUE-DAWLEY/MALE, Target Tissue: Type of Lesion: LARGE INTESTINE: TUMOR, Dose [Carcinogen]: 20 MG/KG BW 1/WK FOR 20 WK, Promoter: NONE USED", "result": "88%, 56%, 36%, p<0.005"}, {"measurement": "tumour outcome (control, treated, inhibition, significance)", "setting": "Carcinogen: 1,2-DIMETHYLHYDRAZINE DIHYDROCHLORIDE, 306-37-6, Dose [Inhibitor]: 20 MG/L TAP WATER DAILY FOR 32 WK STARTING SIMULTANEOUSLY WITH CARCINOGEN TREATMENT (STUDY DURATION: 32 WK), Route [Inhibitor]: ORAL, Species: RAT, Strain/Sex: SPRAGUE-DAWLEY/MALE, Target Tissue: Type of Lesion: SMALL INTESTINE: TUMOR, Dose [Carcinogen]: 20 MG/KG BW 1/WK FOR 20 WK, Promoter: NONE USED", "result": "46%, 31%, 33%, not significant"}, {"measurement": "tumour outcome (control, treated, inhibition, significance)", "setting": "Carcinogen: 1,2-DIMETHYLHYDRAZINE, 540-73-8, Dose [Inhibitor]: 20 MG/L IN DRINKING WATER DAILY FOR 15 WK STARTING 34 D AFTER CARCINOGEN ADMINISTRATION (STUDY DURATION: 20 WK), Route [Inhibitor]: ORAL, Species: RAT, Strain/Sex: SPRAGUE-DAWLEY/MALE, Target Tissue: Type of Lesion: INTESTINE: TUMOR, Dose [Carcinogen]: 30 MG/KG BW ONCE, Promoter: NONE USED", "result": "9/10 (90%), 2/9 (22%), 76%, p 0.0019"}, {"measurement": "tumour outcome (control, treated, inhibition, significance)", "setting": "Carcinogen: 1-HYDROXYANTHRAQUINONE, 129-43-1, Dose [Inhibitor]: 0, 16 PMM IN DRINKING WATER FOR 48 WK (STUDY DURATION: 48 WK), Route [Inhibitor]: ORAL, Species: RAT, Strain/Sex: ACI/MALE, Target Tissue: Type of Lesion: LARGE BOWEL: ADENOCARCINOMA, Dose [Carcinogen]: 1.5% IN DIET FOR 48 WK, Promoter: NONE USED", "result": "7/27 (26%), 0/14 (0%), 100%), p= 0.03"}, {"measurement": "tumour outcome (control, treated, inhibition, significance)", "setting": "Carcinogen: 1-HYDROXYANTHRAQUINONE, 129-43-1, Dose [Inhibitor]: 0, 16 PPM IN DRINKING WATER FOR 48 WK (STUDY DURATION: 48 WK), Route [Inhibitor]: ORAL, Species: RAT, Strain/Sex: ACI/MALE, Target Tissue: Type of Lesion: CECUM: ADENOCARCINOMA, Dose [Carcinogen]: 1.5% IN DIET FOR 48 WK, Promoter: NONE USED", "result": "3/27 (11%), 0/14 (0%), 100%, not calculated"}, {"measurement": "tumour outcome (control, treated, inhibition, significance)", "setting": "Carcinogen: 1-HYDROXYANTHRAQUINONE, 129-43-1, Dose [Inhibitor]: 0, 16 PPM IN DRINKING WATER FOR 48 WK (STUDY DURATION: 48 WK), Route [Inhibitor]: ORAL, Species: RAT, Strain/Sex: ACI/MALE, Target Tissue: Type of Lesion: CECUM: ADENOMA, Dose [Carcinogen]: 1.5% IN DIET FOR 48 WK, Promoter: NONE USED", "result": "2/27 (7%), 0/14 (0%), 100%, not calculated"}, {"measurement": "tumour outcome (control, treated, inhibition, significance)", "setting": "Carcinogen: 1-HYDROXYANTHRAQUINONE, 129-43-1, Dose [Inhibitor]: 0, 16 PPM IN DRINKING WATER FOR 48 WK (STUDY DURATION: 48 WK), Route [Inhibitor]: ORAL, Species: RAT, Strain/Sex: ACI/MALE, Target Tissue: Type of Lesion: COLON: ADENOCARCINOMA, Dose [Carcinogen]: 1.5% IN DIET FOR 48 WK, Promoter: NONE USED", "result": "5/27 (19%), 0/14 (0%), 100%, not calculated"}, {"measurement": "tumour outcome (control, treated, inhibition, significance)", "setting": "Carcinogen: 1-HYDROXYANTHRAQUINONE, 129-43-1, Dose [Inhibitor]: 0, 16 PPM IN DRINKING WATER FOR 48 WK (STUDY DURATION: 48 WK), Route [Inhibitor]: ORAL, Species: RAT, Strain/Sex: ACI/MALE, Target Tissue: Type of Lesion: COLON: ADENOMA OR ADENOCARCINOMA, Dose [Carcinogen]: 1.5% IN DIET FOR 48 WK, Promoter: NONE USED", "result": "9/27 (33%), 0/14 (0%), 100%, p<0.01"}, {"measurement": "tumour outcome (control, treated, inhibition, significance)", "setting": "Carcinogen: 1-HYDROXYANTHRAQUINONE, 129-43-1, Dose [Inhibitor]: 0, 16 PPM IN DRINKING WATER FOR 48 WK (STUDY DURATION: 48 WK), Route [Inhibitor]: ORAL, Species: RAT, Strain/Sex: ACI/MALE, Target Tissue: Type of Lesion: COLON: ADENOMA, Dose [Carcinogen]: 1.5% IN DIET FOR 48 WK, Promoter: NONE USED", "result": "4/27 (15%), 0/14 (0%), 100%, not calculated"}, {"measurement": "outcome", "setting": "Carcinogen: 1-HYDROXYANTHRAQUINONE, 129-43-1, Dose [Inhibitor]: 0, 16 PPM IN DRINKING WATER FOR 48 WK (STUDY DURATION: 48 WK), Route [Inhibitor]: ORAL, Species: RAT, Strain/Sex: ACI/MALE, Target Tissue: Type of Lesion: FORESTOMACH: PAPILLOMA, Dose [Carcinogen]: 1.5% IN DIET FOR 48 WK, Promoter: NONE USED", "result": "14/27 (52%), 2/14 (14%), p= 0.01"}, {"measurement": "tumour outcome (control, treated, inhibition, significance)", "setting": "Carcinogen: 1-HYDROXYANTHRAQUINONE, 129-43-1, Dose [Inhibitor]: 0, 16 PPM IN DRINKING WATER FOR 48 WK (STUDY DURATION: 48 WK), Route [Inhibitor]: ORAL, Species: RAT, Strain/Sex: ACI/MALE, Target Tissue: Type of Lesion: FORESTOMACH: TUMOR, Dose [Carcinogen]: 1.5% IN DIET FOR 48 WK, Promoter: NONE USED", "result": "14/27 (52%), 2/14 (14%), 73%, p<0.01"}, {"measurement": "tumour outcome (control, treated, inhibition, significance)", "setting": "Carcinogen: 1-HYDROXYANTHRAQUINONE, 129-43-1, Dose [Inhibitor]: 0, 16 PPM IN DRINKING WATER FOR 48 WK (STUDY DURATION: 48 WK), Route [Inhibitor]: ORAL, Species: RAT, Strain/Sex: ACI/MALE, Target Tissue: Type of Lesion: LARGE BOWEL: ADENOMA, Dose [Carcinogen]: 1.5% IN DIET FOR 48 WK, Promoter: NONE USED", "result": "5/27 (19%), 0/14 (0%), 100%, not calculated"}, {"measurement": "tumour outcome (control, treated, inhibition, significance)", "setting": "Carcinogen: 1-HYDROXYANTHRAQUINONE, 129-43-1, Dose [Inhibitor]: 0, 16 PPM IN DRINKING WATER FOR 48 WK (STUDY DURATION: 48 WK), Route [Inhibitor]: ORAL, Species: RAT, Strain/Sex: ACI/MALE, Target Tissue: Type of Lesion: LARGE BOWEL: TUMOR, Dose [Carcinogen]: 1.5% IN DIET FOR 48 WK, Promoter: NONE USED", "result": "12/27 (44%), 0/14 (0%), 100%, not calculated"}, {"measurement": "tumour outcome (control, treated, inhibition, significance)", "setting": "Carcinogen: 1-HYDROXYANTHRAQUINONE, 129-43-1, Dose [Inhibitor]: 0, 16 PPM IN DRINKING WATER FOR 48 WK (STUDY DURATION: 48 WK), Route [Inhibitor]: ORAL, Species: RAT, Strain/Sex: ACI/MALE, Target Tissue: Type of Lesion: LIVER: NEOPLASTIC NODULE, Dose [Carcinogen]: 1.5% IN DIET FOR 48 WK, Promoter: NONE USED", "result": "1/27 (4%), 0/14 (0%), 100%, not calculated"}, {"measurement": "tumour outcome (control, treated, inhibition, significance)", "setting": "Carcinogen: 1-HYDROXYANTHRAQUINONE, 129-43-1, Dose [Inhibitor]: 0, 16 PPM IN DRINKING WATER FOR 48 WK (STUDY DURATION: 48 WK), Route [Inhibitor]: ORAL, Species: RAT, Strain/Sex: ACI/MALE, Target Tissue: Type of Lesion: LIVER: TUMOR, Dose [Carcinogen]: 1.5% IN DIET FOR 48 WK, Promoter: NONE USED", "result": "1/27 (4%), 0/14 (0%), 100%, not calculated"}, {"measurement": "tumour outcome (control, treated, inhibition, significance)", "setting": "Carcinogen: 2-ACETYLAMINOFLUORENE, 53-96-3, Dose [Inhibitor]: 0, 10 PPM IN DRINKING WATER FOR 18 WK BEGINNING 1 WK PRIOR TO CARCINOGEN TREATMENT (STUDY DURATION: 36 WK), Route [Inhibitor]: ORAL, Species: RAT, Strain/Sex: ACI/N/MALE, Target Tissue: Type of Lesion: LIVER: TUMOR, Dose [Carcinogen]: 200 PPM IN DIET FOR 16 WK, Promoter: NONE USED", "result": "10/10 (100%), 1/10 (10%), 90%, p=0.00006"}, {"measurement": "outcome", "setting": "Carcinogen: 4-HYDROXYBUTYL(BUTYL)NITROSAMINE [3817-11-6], Dose [Inhibitor]: 20 MG/KG IN DIET 1 WK AFTER CARCINOGEN (STUDY DURATION: 32 WK), Route [Inhibitor]: DIET, Species: MOUSE, Strain/Sex: B6D2F1/MALE, Target Tissue: Type of Lesion: BLADDER: CARCINOMA, Dose [Carcinogen]: 7.5 MG/WK FOR 12 WK", "result": "32, 6, 81%"}, {"measurement": "outcome", "setting": "Carcinogen: 4-HYDROXYBUTYL(BUTYL)NITROSAMINE [3817-11-6], Dose [Inhibitor]: 20 MG/KG IN DIET 1 WK AFTER LAST CARCINOGEN DOSE (STUDY DURATION: 61 WK), Route [Inhibitor]: DIET, Species: MOUSE, Strain/Sex: B6D2F1/MALE, Target Tissue: Type of Lesion: BLADDER: CARCINOMA, Dose [Carcinogen]: 7.5 MG/WK FOR 12 WK", "result": "66, 26, 61%"}, {"measurement": "outcome", "setting": "Carcinogen: 4-HYDROXYBUTYL(BUTYL)NITROSAMINE [3817-11-6], Dose [Inhibitor]: 20 MG/KG IN DIET 1 WK AFTER LAST CARCINOGEN DOSE FOR 12 WK (STUDY DURATION: 42 WK), Route [Inhibitor]: DIET, Species: MOUSE, Strain/Sex: B6D2F1/MALE, Target Tissue: Type of Lesion: BLADDER: CARCINOMA, Dose [Carcinogen]: 7.5 MG/WK FOR 12 WK", "result": "31, 16, 48%"}]}
